Broadly, the MIC80 is the lowest concentration that inhibits either 80% of growth or 80% of the strains tested, depending on the study. One may read the IC50 as the concentration that gives 50% inhibition.

This note sets out measurements from US20250313546A1, “NUCLEIC ACID BINDERS” (UNIVERSITY OF STRATHCLYDE, priority 2022, published 2025).

Converted amounts (≈) assume the structure as drawn.

Assay [1] relates to Enterococcus faecalis (ATCC 51299). As to the kind of experiment: Antibacterial MIC, broth microdilution (CLSI). In kind it is cell-based. As to conditions: for MIC80: Enterococcus faecalis, ATCC51299, read-out: MIC80 E. faecalis; for E. faecalis Selectivity Indices, Group: SI, IC50 (μM)/MIC80 (μM), HEK293 cytotoxicity.
Assay [2] relates to Genomic double stranded DNA (salmon). As to the kind of experiment: Fluorescence intercalator displacement (FID) assay, SYBR-safe probe. As to conditions: 20 μM compound, 30° C., lower % = stronger binding. The method, then:
(§1) The ability of compounds of the invention to bind to DNA and RNA was assessed using a fluorescence intercalator displacement assay. Genomic double stranded DNA (salmon) or PolyAU double stranded RNA is treated with probe molecule (Sybr-Safe) that increases its fluorescence upon binding to nucleic acids.
(§2) polyAU RNA (Polyadenylic acid—Polyuridylic acid sodium salt, double-stranded homopolymer, P1537, Merck) or genomic DNA (Deoxyribonucleic acid sodium salt from salmon testes, D1626, Merck) was dissolved in 1 mM pH 7.4 phosphate buffer (containing 0.27 mM potassium chloride, 13.7 mM sodium chloride) to a concentration of 1 mg/mL in, SybrSafe (SYBR® Safe DNA Gel Stain, ×10,000 in DMSO, S33102 Invitrogen) was used as supplied by the manufacturer in DMSO, and compounds of the invention were prepared as 10 mM stocks in DMSO. These stock solutions were diluted appropriately with each other and 1 mM phosphate buffer to give test solutions comprised of 20 μM compound of the invention, 12500-fold dilution of SybrSafe and 3.76 ng/mL RNA/DNA. Control solutions of RNA/DNA and SybrSafe, RNA/DNA, and SybrSafe at these concentrations were also prepared. Test and control solutions were heated to 30° C. and the fluorescence of each solution was measured using the SYBER filter setting of a StepOnePlus using melt analysis mode (StepOne Software v2.3). The reduction of fluorescence due to the binding of the compound of the invention to the RNA/DNA was calculated as a normalised percentage based on the fluorescence measured due to the control with SybrSafe and RNA/DNA as maximum and the control with only SybrSafe as minimum.
(§3) A reduction in normalised % is indicative of probe displacement and thus strong nucleic acid binding.

Assay [3] concerns PolyAU double stranded RNA. Described as above. As to conditions: 20 μM compound, 30° C., lower % = stronger binding. The method, then:
as §1, §2, §3

Assay [4] has as its system Escherichia coli (ATCC 25922). As to the kind of experiment: Antibacterial MIC, broth microdilution (CLSI). It counts as cell-based. As to conditions: Escherichia coli, ATCC25922; read-out: MIC80 E. coli. (In broth dilution the organism is exposed to a series of concentrations in liquid medium.)
The test system of assay [5] is Staphylococcus aureus (ATCC 43300). The experiment in a line: Antibacterial MIC, broth microdilution (CLSI). It counts as cell-based. To be noted: for MIC80: Staphylococcus aureus, ATCC43300, read-out: MIC80 S. aureus; for S. aureus Selectivity Indices, Group: SI, IC50 (μM)/MIC80 (μM), HEK293 cytotoxicity.
The next assay has as its system T. vaginalis. The experiment in a line: Trichomonas resorufin assay. It counts as cell-based. To be noted: for T. vaginalis Selectivity Indices, Group: SI, IC50 (μM)/IC50 (μM), HEK293 cytotoxicity; for IC50: Trichomonas vaginalis, read-out: IC50 T. vaginalis.

On to `CN(C)c1ccc(/C=C/c2ccc(C(=O)Nc3c[nH]c(C(=O)Nc4cc(C(=O)NCCN5CCOCC5)n(C)c4)c3)cn2)cc1` [IIIb2, (E)-6-(4-(dimethylamino)styryl)-N-(5-((1-methyl-5-((2-morpholinoethyl)carbamoyl)-1H-pyrrol-3-yl)carbamoyl)-1H-pyrrol-3-yl)nicotinamide], for which the MIC80 in assay [1] is greater than 100 µM; in assay [4], greater than 100 µM; in assay [5] it was 5 to 25 µM (≈ 3.05 to 15.3 µg/mL). The “% Normalised Fluorescence with gDNA” value in assay [2] is reported as 31%. Further, in assay [3], the “% Normalised Fluorescence with polyAU RNA” value turned out to be 85%.

Regarding `CCNC(=O)c1cc(NC(=O)c2cc(NC(=O)c3ccc(/C=C/c4cnc5ccccc5c4)cc3)cn2C)cn1C` [IVa6, (E)-N-ethyl-1-methyl-4-(1-methyl-4-(4-(2-(quinolin-3-yl)vinyl)benzamido)-1H-pyrrole-2-carboxamido)-1H-pyrrole-2-carboxamide], the MIC80 is less than 5 µM in assay [1], greater than 100 µM in assay [4] and less than 5 µM in assay [5]. For the same compound, in assay [1] (Amides), the “E. faecalis Selectivity Indices, Group” value is reported as “B (Group B: 0.4 < SI <= 1.5)”. For the same compound, the “T. vaginalis Selectivity Indices, Group” value with T. vaginalis (Amides) is “B (Group B: 0.25 < SI <= 0.5)”. In the assay with T. vaginalis, the concentration for half-maximal inhibition (IC50) lay in the range of 1 to 5 µM.

As for `Cn1cc(NC(=O)c2cc(NC(=O)c3ccc(/C=C/c4cnc5ccccc5c4)cc3)cn2C)cc1C(=O)NCCCCN1CCCCC1` [IVa11, (E)-1-methyl-4-(1-methyl-4-(4-(2-(quinolin-3-yl)vinyl)benzamido)-1H-pyrrole-2-carboxamido)-N-(4-(piperidin-1-yl)butyl)-1H-pyrrole-2-carboxamide], the MIC80 in assay [1] was 5 to 25 µM (≈ 3.29 to 16.4 µg/mL); in assay [4], greater than 100 µM; in assay [5] it was 5 to 25 µM (≈ 3.29 to 16.4 µg/mL). For the same compound, the “% Normalised Fluorescence with gDNA” value in assay [2] stood at 42%. For the same compound, the “% Normalised Fluorescence with polyAU RNA” value in assay [3] is 68%.

Turning to `Cn1cc(NC(=O)c2cc(NC(=O)c3ccc(/C=C/c4cnc5ccccc5c4)cc3)cn2C)cc1C(=O)NCCCCN1CCCC1` [IVa12, (E)-1-methyl-4-(1-methyl-4-(4-(2-(quinolin-3-yl)vinyl)benzamido)-1H-pyrrole-2-carboxamido)-N-(4-(pyrrolidin-1-yl)butyl)-1H-pyrrole-2-carboxamide], the MIC80 in assay [1] is less than 5 µM; in assay [4], greater than 100 µM; in assay [5], 5 to 25 µM (≈ 3.22 to 16.1 µg/mL). For the same compound, the “% Normalised Fluorescence with gDNA” value in assay [2] amounted to 50%. Further, the “% Normalised Fluorescence with polyAU RNA” value in assay [3] was 71%.

Take `CNC(=O)c1cc(NC(=O)c2cc(NC(=O)c3ccc(/C=C/c4ccc(N(C)C)cc4)nc3)cn2C)cn1C` [IVa13, (E)-6-(4-(dimethylamino)styryl)-N-(1-methyl-5-((1-methyl-5-(methylcarbamoyl)-1H-pyrrol-3-yl)carbamoyl)-1H-pyrrol-3-yl)nicotinamide]: the values for the MIC80 in assay [1], in assay [4] and in assay [5] were less than 5 µM, greater than 100 µM and less than 5 µM, respectively. The “% Normalised Fluorescence with gDNA” value in assay [2] was 80%. The “% Normalised Fluorescence with polyAU RNA” value in assay [3] worked out at 83%.

Regarding `Cn1cc(NC(=O)c2ccc(/C=C/c3cnc4ccccc4c3)cc2)cc1C(=O)Nc1cc(C(=O)N2CCCCC2)n(C)c1` [IVb1, (E)-1-methyl-N-(1-methyl-5-(piperidine-1-carbonyl)-1H-pyrrol-3-yl)-4-(4-(2-(quinolin-3-yl)vinyl)benzamido)-1H-pyrrole-2-carboxamide], the MIC80 was greater than 100 µM in assay [1], greater than 100 µM in assay [4] and 25 to 100 µM (≈ 14.7 to 58.7 µg/mL) in assay [5]. Also, the IC50 with T. vaginalis lay in the range of 5 to 50 µM.

For the compound `Cn1cc(NC(=O)c2ccc(/C=C/c3cnc4ccccc4c3)cc2)cc1C(=O)Nc1cc(C(=O)N2CCSCC2)n(C)c1` [IVb2, (E)-1-methyl-N-(1-methyl-5-(thiomorpholine-4-carbonyl)-1H-pyrrol-3-yl)-4-(4-(2-(quinolin-3-yl)vinyl)benzamido)-1H-pyrrole-2-carboxamide], the MIC80 in assay [1] is greater than 100 µM; in assay [4], greater than 100 µM; in assay [5] it was 25 to 100 µM (≈ 15.1 to 60.5 µg/mL). For the same compound, the IC50 with T. vaginalis lay within 5 to 50 µM.

Turning to `Cn1cc(NC(=O)c2ccc(/C=C/c3cnc4ccccc4c3)cc2)cc1C(=O)Nc1cc(C(=O)N2CCCCCC2)n(C)c1` [IVb3, (E)-N-(5-(azepane-1-carbonyl)-1-methyl-1H-pyrrol-3-yl)-1-methyl-4-(4-(2-(quinolin-3-yl)vinyl)benzamido)-1H-pyrrole-2-carboxamide], the MIC80 in assay [1] was greater than 100 µM; in assay [4] it was greater than 100 µM; in assay [5], 25 to 100 µM (≈ 15 to 60.1 µg/mL). For the same compound, the IC50 in the assay with T. vaginalis fell in the range of 5 to 50 µM.

`CCCCCCCCCCCCC[N+](C)(C)CCNC(=O)c1cc(NC(=O)c2cc(NC(=O)c3ccc(/C=C/c4cnc5ccccc5c4)cc3)cn2C)cn1C` [Ic12, (E)-N,N-dimethyl-N-(2-(1-methyl-4-(1-methyl-4-(4-(2-(quinolin-3-yl)vinyl)benzamido)-1H-pyrrole-2-carboxamido)-1H-pyrrole-2-carboxamido)ethyl)tridecan-1-aminium]: the “% Normalised Fluorescence with gDNA” value in assay [2] is 94%. In addition, in assay [3], the “% Normalised Fluorescence with polyAU RNA” value stood at 38%.

For `CCCCCCCCCCCCCCCCC[N+](C)(C)CCNC(=O)c1cc(NC(=O)c2cc(NC(=O)c3ccc(/C=C/c4cnc5ccccc5c4)cc3)cn2C)cn1C` [Ic16, (E)-N,N-dimethyl-N-(2-(1-methyl-4-(1-methyl-4-(4-(2-(quinolin-3-yl)vinyl)benzamido)-1H-pyrrole-2-carboxamido)-1H-pyrrole-2-carboxamido)ethyl)heptadecan-1-aminium], the “% Normalised Fluorescence with gDNA” value in assay [2] came out at 98%. Also, in assay [3], the “% Normalised Fluorescence with polyAU RNA” value was 64%.

As to `CCCCCCCCCCCCCCCCCC[N+](C)(C)CCNC(=O)c1cc(NC(=O)c2cc(NC(=O)c3ccc(/C=C/c4cnc5ccccc5c4)cc3)cn2C)cn1C` [Ic17, (E)-N,N-dimethyl-N-(2-(1-methyl-4-(1-methyl-4-(4-(2-(quinolin-3-yl)vinyl)benzamido)-1H-pyrrole-2-carboxamido)-1H-pyrrole-2-carboxamido)ethyl)octadecan-1-aminium], in the assay with T. vaginalis, the concentration for half-maximal inhibition (IC50) was greater than 50 µM.

Regarding `Cn1cc(NC(=O)c2cc(NC(=O)c3ccc(/C=C/c4ccc(C(F)(F)F)cc4)cc3)cn2C)cc1C(=O)NCCC(=N)N` [Ref-6, reference compound], the “E. faecalis Selectivity Indices, Group” value in assay [1] (Alkyl Amidines and NH Pyrroles) was “A (Group A: SI < 3)”. Also, in the assay on T. vaginalis (Alkyl Amidines and NH Pyrroles), the “T. vaginalis Selectivity Indices, Group” value is listed as “A (Group A: SI < 8)”. The “S. aureus Selectivity Indices, Group” value in assay [5] (Alkyl Amidines and NH Pyrroles) is on record as “A (Group A: SI < 3)”.

With `CN(C)CCNC(=O)c1cc(NC(=O)c2cc(NC(=O)c3ccc(/C=C/c4cnc5ccccc5c4)cc3)cn2C)cn1C` [Ref-7, (E)-N-(2-(dimethylamino)ethyl)-1-methyl-4-(1-methyl-4-(4-(2-(quinolin-3-yl)vinyl)benzamido)-1H-pyrrole-2-carboxamido)-1H-pyrrole-2-carboxamide, reference compound], the “E. faecalis Selectivity Indices, Group” value is on record as “A (Group A: SI < 3)” in assay [1] (Alkyl Amidines and NH Pyrroles); “A (Group A: SI < 0.7)” in assay [1] (Quaternary ammoniums). Also, the “T. vaginalis Selectivity Indices, Group” value in the assay with T. vaginalis (Alkyl Amidines and NH Pyrroles) was “A (Group A: SI < 8)”; with T. vaginalis (Quaternary ammoniums) it was “A (Group A: SI < 0.8)”. For the same compound, the “S. aureus Selectivity Indices, Group” value in assay [5] (Alkyl Amidines and NH Pyrroles) is given as “A (Group A: SI < 3)”; in assay [5] (Quaternary ammoniums), “A (Group A: SI < 2)”.
